Consider one compound from patent publication US5447925A, “Antibiotic compounds” (Imperial Chemical Industries PLC, priority 1991, dated 1995).

Values after ≈ are worked out from the molar mass of the structure shown.

What all share (format): cell-based
Experiment [1] concerns Strep. pyogenes (681018). As to the kind of experiment: MIC by agar dilution, Strep. pyogenes (681018). The following applies: Streptococcus pyogenes, Diagnostic Sensitivity Test agar, inoculum 10^4 CFU/spot. The source says: (§1) The pharmaceutically acceptable carbapenem compounds of the present invention are useful antibacterial agents having a broad spectrum of activity in vitro against standard laboratory microorganisms, both Gram-negative and Gram-positive, which are used to screen for activity against pathogenic bacteria. The antibacterial spectrum and potency of a particular compound may be determined in a standard test system. In particular the carbapenems of the present invention show good stability to beta-lactamases and have particularly high activity in vitro against strains of Pseudomonas aeruginosa and other Gram-negative aerobic bacteria.
(§2) The following results were obtained for representative compounds on a standard in vitro test system using Diagnostic Sensitivity Test agar medium. The antibacterial activity is described in terms of the minimum inhibitory concentration (M1C) determined by the agar-dilution technique with an inoculum size of 10^4 CFU/spot.

For experiment [2], the system named is P. aeruginosa PU21 (101028). The experiment can be described thus: MIC by agar dilution, P. aeruginosa PU21 (101028). Particulars: Pseudomonas aeruginosa, Diagnostic Sensitivity Test agar, inoculum 10^4 CFU/spot.
From the text: as §1, §2

Experiment [3] deals with P. aeruginosa 18S IMIR (101148). As to the kind of experiment: MIC by agar dilution, P. aeruginosa 18S IMIR (101148). The following applies: Pseudomonas aeruginosa.
From the text: as §1, §2

In experiment [4] the test system is E. coli DCO (341098). As to the kind of experiment: MIC by agar dilution, E. coli DCO (341098). Particulars: Escherichia coli, Diagnostic Sensitivity Test agar, inoculum 10^4 CFU/spot.
From the text: as §1, §2

The test system of experiment [5] is Pr. morganii (433001). The experiment can be described thus: MIC by agar dilution, Pr. morganii (433001). Particulars: Morganella morganii, Diagnostic Sensitivity Test agar, inoculum 10^4 CFU/spot.
From the text: as §1, §2

Experiment [6] relates to P. aeruginosa 18S (101024). As to the kind of experiment: MIC by agar dilution, P. aeruginosa 18S (101024). The following applies: Pseudomonas aeruginosa, Diagnostic Sensitivity Test agar, inoculum 10^4 CFU/spot.
From the text: as §1, §2

Experiment [7] deals with S. dublin (369001). As to the kind of experiment: MIC by agar dilution, S. dublin (369001). Particulars: Salmonella enterica, Diagnostic Sensitivity Test agar, inoculum 10^4 CFU/spot.
From the text: as §1, §2

Experiment [8] deals with B. fragilis AMP R (542008). The experiment can be described thus: MIC by agar dilution, B. fragilis AMP R (542008). The following applies: Bacteroides fragilis, Diagnostic Sensitivity Test agar, inoculum 10^4 CFU/spot.
From the text: as §1, §2

Experiment [9] deals with St. aureus 147N (601052). The experiment can be described thus: MIC by agar dilution, St. aureus 147N (601052). Particulars: Staphylococcus aureus, Diagnostic Sensitivity Test agar, inoculum 10^4 CFU/spot.
From the text: as §1, §2

In experiment [10] the test system is Ent. cloacae P99^- (401054). As to the kind of experiment: MIC by agar dilution, Ent. cloacae P99^- (401054). Particulars: Enterobacter cloacae.
From the text: as §1, §2

Experiment [11] deals with Serr. marcesens (421003). The experiment can be described thus: MIC by agar dilution, Serr. marcesens (421003). Particulars: Diagnostic Sensitivity Test agar, inoculum 10^4 CFU/spot.
From the text: as §1, §2

For `C[C@@H](O)[C@H]1C(=O)N2C(C(=O)O)=C(S[C@@H]3CN[C@H](CNC(=O)c4cc(O)c(O)c(C#N)c4)C3)[C@H](C)[C@H]12` [Example 3, (1R,5R,6S,8R,2'S,4'S)-2-(2-(5-cyano-3,4-dihydroxybenzoylaminomethyl)pyrrolidin-4-ylthio)-6-(1-hydroxyethyl)-1-methyulcarbapenem-3carboxylic acid], the MIC in experiment [1] worked out at 0.008 µg/mL (≈ 0.0159 µM); in [2] it was 0.25 µg/mL (≈ 0.497 µM); in experiment [3], 0.125 µg/mL (≈ 0.249 µM); in experiment [4], 0.03 µg/mL (≈ 0.0597 µM); in experiment [5] it was 0.5 µg/mL (≈ 0.995 µM); in [6], 0.125 µg/mL (≈ 0.249 µM). Moreover, the MIC in [7] came out at 0.06 µg/mL (≈ 0.119 µM); in experiment [8] it was 4 µg/mL (≈ 7.96 µM); in experiment [9], 0.125 µg/mL (≈ 0.249 µM); in experiment [10] it was 0.03 µg/mL (≈ 0.0597 µM); in experiment [11], 0.25 µg/mL (≈ 0.497 µM).
